# Experiments:
# Hsp70 = assay: Western blot of Hsp70 levels in BT474 and SKBR3 cells; assay type: cell-based, human; details: 17-AAG 0.178 μM, compound 8 1 or 5 μM
# [1] = test system: BT474 breast cancer cells; assay: WST-1 colorimetric cell proliferation assay, BT474; assay type: cell-based, human; details: WST-1, concentration-dependent cell killing
# [2] = cited from earlier work
# cancer patients = details: cited from earlier work
# HER2 = assay: Western blot of HER2 levels in BT474 cells; assay type: cell-based, human; details: compound 8 1 μM, 6, 12, 24 h, 17-AAG 0.178 μM
smiles,measurement,setting,value
"C=CCNC1=C2C[C@@H](C)C[C@H](OC)[C@H](O)[C@@H](C)/C=C(\C)[C@H](OC(N)=O)[C@@H](OC)/C=C\C=C(/C)C(=O)NC(=CC1=O)C2=O [Compound 17-AAG, 17-Allylamino-17-demethoxygeldanamycin]",Hsp70 levels,Hsp70,significant increase in Hsp70 levels
same,"cell killing selectivity, BT474 versus SKBR3 and MCF-12F",[1],significantly more potent in killing BT474 cells than SKBR3 and normal cells
same,solubility in aqueous solution,[2],low solubility in aqueous solution
same,most common dose-limiting side effects,cancer patients,"anorexia, nausea, diarrhea, hepatoxicity, fatigue, thrombocytopenia, and anemia"
same,HER2 levels in BT474 cells,HER2,time-dependent decrease in HER2 levels
